pEC50: −log10 of the molar value. Read-outs that look alike come from different tables or passages of the source.
Assays:
Type in all cases: cell-based
[1] = tested on: PANC-1 pancreatic cancer cells; assay: Bortezomib sensitization, cell viability in PANC-1 pancreatic cancer cells; conditions: PANC-1 cells; for pEC50: Homo sapiens, cell viability after 48 hour treatment; for fold increase in Btz sensitivity: compound at 1 μM vs DMSO, 48 hour
Procedure: (§1) Reference is made to FIG. 1. (A) The structures of novel derivatives E64FC26 and E64FC65 are shown. (B) Proteasome inhibitor (PI) resistant MM.1S BzR cells were treated with the E64FC26 at a concentration of 500 nM and a dose range of the PI bortezomib (Btz). Cell viability was measured after 24 hours of treatment. […] (C) PANC-1 pancreatic cancer cells were treated with the indicated derivative at a final concentration of 1 μM and a dose range of Btz. Cell viability was measured after a 48 hour treatment time. […] (D) Panels of pancreatic, ovarian, glioma, multiple myeloma, and normal cells were treated with E64FC26 and a dose range of the second generation proteasome inhibitor carfilzomib (Crflz) using a protocol similar to that described above for panels (B) and (C). Crflz EC50 values were extrapolated from dose curves conducted in the presence and absence of E64FC26 and a fold-change was calculated. Each data point represents the fold-change, or the degree of Crflz potentiation, for each cell line tested.

[2] = tested on: MM.1S BzR cells; assay: Bortezomib sensitization, cell viability in PI-resistant MM.1S BzR cells; conditions: for pEC50: Homo sapiens, MM1.S, cell viability after 24 hours
Procedure: as §1

[3] = tested on: PANC-1 pancreatic cancer cells; assay: Panobinostat (HDAC inhibitor) sensitization, cytotoxicity in PANC-1 pancreatic cancer cells; conditions: PANC-1 cells; for pEC50: Homo sapiens; for increase in panobinostat sensitivity (fold): 1 μM compound vs DMSO
Procedure: Reference is made to FIG. 3. (A) In PANC-1 pancreatic cancer cells, the cytotoxicity of each of the indicated HDAC inhibitors was evaluated in the presence and absence of 1 μM E64FC26. EC50 values are shown. (B) Similar experiments as described in (A) were conducted using T98G glioblastoma cells. EC50 values for each of the HDAC inhibitor in the presence and absence of 1 μM E64FC26. (C) Panels of the indicated tumor cell types were treated with a dose range of the HDAC inhibitor panobinostat in the presence and absence of 1 μM E64FC26. EC50 values were extrapolated and the relative effect of E64FC26 on panobinostat sensitivity was calculated. Each data point indicated the fold change in panobinostat EC50 for that particular cell line. (D) An example of full panobinostat dose response curves in PANC-1 pancreatic cancer cells are shown. PANC-1 cells were co-treated with DMSO vehicle control, 1 μM E64FC26, or 1 μM E64FC65.

[4] = compound at 1 μM, read-out: Btz EC50 in the presence of the compound
[5] = co-treated with 1 μM compound, read-out: panobinostat EC50 in the presence of the compound

SMILES	pEC50 ([1]; Btz alone (DMSO vehicle), read-out: Btz EC50 in the presence of DMSO vehicle control)	pEC50 ([2]; Btz alone (DMSO vehicle), read-out: Btz EC50, control cells treated with DMSO vehicle)	pEC50 [1, 4]	fold increase in Btz sensitivity [1]	pEC50 [3, 5]	increase in panobinostat sensitivity (fold) [3]	fold increase in Btz sensitivity ([2]; 500 nM compound vs DMSO, 24 hours)	pEC50 ([2]; co-treatment with 500 nM compound, read-out: Btz EC50 in cells co-treated with the compound)	pEC50 ([3]; panobinostat alone (DMSO vehicle), read-out: panobinostat EC50 in DMSO treated cells)
CC(C)C[C@H](NC(=O)[C@H](Cc1ccccc1)NC(=O)c1cnccn1)B(O)O [Btz, bortezomib, reference compound]	7.08	7.34							
CCCCCCCC/C=C1\C=C(C(F)(F)F)c2cc(O)c(O)cc21 [E64FC26]			8.04	9.2 fold	8.28	85.5 fold	9.7 fold	8.33	
CCCCCC/C=C1\C=C(C(F)(F)F)c2cc3c(cc21)OCO3 [E64FC65, (5E)-7-(trifluoromethyl)-5-heptylidene-5H-indeno[5,6-d][1,3]dioxole]			8.74	46.4 fold	8.96	412 fold			
Cc1[nH]c2ccccc2c1CCNCc1ccc(/C=C/C(=O)NO)cc1 [panobinostat, reference compound]									6.34
